Measurements published in patent US4125606A, “Octapeptide useful for the treatment of diabetes” (Choay S.A., priority 1974, dated 1978).
Where no end group is shown, it is not given here.

Experiments:
[1] = molecular target: glyceraldehyde 3-phosphate dehydrogenase (Homo sapiens, UniProt P04406); assay: Enzymatic effect in vitro: lifting of somantine inhibition of glyceraldehyde 3-phosphate dehydrogenase; assay type: biochemical
Method: In this test, the compound (I) was tested for its ability to raise the inhibition of a somantine extracted from a plasma with respect to the action of glyceraldehyde 3-phosphate dehydrogenase.
To this end, the activity of the enzyme in the presence successively of somantine alone, of the compound (I) alone, and finally in the presence of somantine and of the compound (I), were measured.
In this test, the glyceraldehyde 3-phosphate dehydrogenase was used at a concentration of 0.5 μg/ml, the somantine at 25 μg/ml, and the compound (I) at 50 μg/ml.
The method used for the measurements is that of Pihl and Lang (J. Biol. Chem 237: 1356-1362, 1962).

adult rabbits = assay: Effect on the in vivo effect of insulin: intravenous glucose test in the rabbit
Method: The assays were carried out in the course of the tests carried out to determine the resistance to glucose injected by the intravenous route in the rabbit.
These tests were done on adult rabbits, which had been subjected to prior fasting for 24 hours. Blood was drawn off and the glucose level in the blood samples was determined. The measurement was carried out by the ferricyanide method as adapted for the "Technicon Autoanalyser" (J. Biol. Chem. 120: 51-55, 1937). In this way the glucose level on fasting, then its variation after the intravenous injection of glucose, at the dose of 1 gram per kilo, was determined. These measurements were then renewed in rabbits which had received, 5 minutes after the glucose, an intravenous injection of the compound (1) (5 μg/kg).

mice [2] = assay: Influence on glycemia in mice after glucose injection; assay type: in vivo
Excerpt: Influence of octapeptide (I) on glycemia has been determined in mice under conditions similar to those described for rabbits. The experiment included two series of tests aimed at studying the immediate effects and the prolonged effects.
In the first series of tests, a simultaneous injection of glucose and of the octapeptide (I) was made, and the lowering of glycemia with respect to that of control animals which had not received glucose, was followed as a function of time.
The injections were respectively of 0.25 g of glucose and 2 mg per kilo of body weight of the animal, namely about 40 μ/g, of octapeptide (I) or […].
In the second series of tests, the mice received the product before the injection of glucose. Three injections each of 40 μg of octapeptide (I) were administered respectively 72, 48 and 24 hours before the injection of glucose.

diabetic rats = assay: Effect on glycemia in diabetic animals; assay type: in vivo; settings: diabetic rats fasted 4 hours; glucose 0.5 g/kg; octapeptide 2 μg/g
Method: In this test, the drop in glycemia was compared after the simultaneous injection of glucose, on the one hand, and, on the other hand, either of the octapeptide at the dosage of […], or of insulin, or again of both at once. In that latter case the dosage of octapeptide used was also 2 μg/g.
The tests were carried out on diabetic rats, kept fasting for 4 hours before the injection of glucose (at the dose of 0.5 g/kg of animal).

[3] = tested on: insulin receptors of lipid cells; assay: Insulin binding to trypsinated lipid cells; assay type: cell-based; settings: octapeptide introduced into the medium; trypsinated cells alone no longer fix insulin
Excerpt: In an attempt to elucidate the mechanism of action of the octapeptide (I) with respect to insulin, the phenomena were first studied at the level of the insulin receptors of lipid cells trypsinated to destroy said receptors.

hepatic cells = assay: Insulin binding to hepatic cells; assay type: cell-based
Method: In the same way, the ratio of insulin binding to hepatic cells placed in a suitable reaction medium was measured. When the medium contains octapeptide (I), the ratio of insulin binding to the hepatic cells increases. The result is similar if the said cells are incubated with octapeptide (I).

[4] = tested on: glucose receptors of the Langerhans islets; assay: Insulin liberated by Langerhans islets removed from treated animals; assay type: in vivo; settings: islets removed one day or four days after injection; medium supplemented with glucose
Method: Finally, the effect of the octapeptide (I) on the glucose receptors of the Langerhans islets was determined. For this purpose, the octapeptide (I) was injected into animals.
One day or four days later, the animals were killed and the islets of Langerhans removed. The latter were placed in a reaction medium supplemented with glucose, and the amount of insulin liberated was determined and compared to controls.

mice [5] = assay: Tolerance: acute and subacute toxicity study in mice; assay type: in vivo; settings: 1 month, daily dosages 5 to 10 times the active dosage
Method: An acute and subacute toxicity study was carried out on mice for 1 month, each mouse receiving daily dosages corresponding to 5 to 10 times the active dosage.

[6] = tested on: isolated hemidiaphragm of the rat; assay: Consumption of glucose in vitro, isolated rat hemidiaphragm; assay type: cell-based, Wistar albino male rats; settings: related to the weight of tissue in grams and per hour; glucose 2 mg/ml, insulin 500 μU/ml, compound (I) 250 μg/ml
Method: To follow this consumption, the isolated hemidiaphragm of the rat in vitro was used. The method employed is that described by Park et al. (Effect of insulin on free glucose content of rat diaphragm in vitro - Amer. J. Physiol. 182: 12-16, 1955). The hemidiaphragm derived from Wistar albino male rats each weighing 200 to 250 g was used. The rats were fed freely for 7 days and then starved for 24 hours. The solutions studied contained 2 mg/ml of glucose, 500 μU/ml of insulin. The compound (I) was introduced at 250 μg/ml. The consumption of glucose related to the weight of tissue in grams and per hour was under these conditions: […]

Sequence of glyceraldehyde 3-phosphate dehydrogenase (P04406 whole entry, species assumed): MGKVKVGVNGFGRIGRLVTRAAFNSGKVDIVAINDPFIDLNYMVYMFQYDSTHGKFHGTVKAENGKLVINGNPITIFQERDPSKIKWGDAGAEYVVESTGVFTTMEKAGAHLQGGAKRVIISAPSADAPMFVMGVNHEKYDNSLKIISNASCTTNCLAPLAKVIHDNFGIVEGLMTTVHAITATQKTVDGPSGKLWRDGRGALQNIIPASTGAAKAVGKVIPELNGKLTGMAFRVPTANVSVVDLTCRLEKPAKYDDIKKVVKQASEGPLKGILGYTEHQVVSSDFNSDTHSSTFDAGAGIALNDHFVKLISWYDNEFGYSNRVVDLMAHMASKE

Substance	effect on the inhibiting effect of somantine (in words) ([1]; compound (I) 50 μg/ml together with somantine 25 μg/ml)	effect on the activity of the enzyme (in words) ([1]; compound (I) alone, 50 μg/ml)	decrease in the blood glucose level after intravenous glucose (in words) (adult rabbits; rabbits fasted 24 hours, glucose 1 g/kg i.v., compound 5 μg/kg i.v. 5 minutes after the glucose)	glucose level reached, compared with fasting level (in words) (adult rabbits; rabbits, glucose 1 g/kg i.v., compound 5 μg/kg i.v.)	persistence of the effect on carbohydrate metabolism (in words) (adult rabbits; similar tests at intervals of several days after the injection)	drop in glycemia, immediate effect (in words) (mice [2]; simultaneous injection of glucose 0.25 g and octapeptide 2 mg per kilo)	drop in glycemia, prolonged effect (in words) (mice [2]; three injections of 40 μg at 72, 48 and 24 hours before glucose, versus control mice receiving only glucose)	course of glycemia after glucose injection (in words) (diabetic rats)	insulin binding to trypsinated lipid cells (in words) [3]	ratio of insulin binding to hepatic cells (in words) (hepatic cells; cells incubated with octapeptide (I))	ratio of insulin binding to hepatic cells (in words) (hepatic cells; medium contains octapeptide (I))	level of liberated insulin compared to controls (in words) [4]	toxic effect, macro and microscopic studies (in words) (mice [5])	Consumption of glucose [6]
LSRLFDNA [compound (I), leucyl - seryl - arginyl - leucyl - phenylalanyl - aspartyl - asparaginyl - alanine]	inhibiting effect of somantine to be partly suppressed	practically without effect on the activity of the enzyme	decrease in the glucose level is greater	glucose level even reached values less than those which were measured in the fasting rabbits	persists several days	drop in glycemia distinctly more accentuated	more rapid drop in glycemia	glycemia is practically unmodified	the binding reappears	similar	increases	very substantial increase	not shown any toxic effect	
insulin: insulin; in the hemidiaphragm test 500 μU/ml in a 2 mg/ml glucose solution [reference compound]								decreases rapidly, stabilises, then rises again						4.10 ± 0.15 mg
